Laboratory results: patent publication EP0217101A1, “Substituted diphenyl ethers, process for their preparation and their use as herbicides” (HOECHST AKTIENGESELLSCHAFT, priority 1985, dated 1987)

What was measured:
Assay type in all cases: in vivo
Avena sativa [1] = assay: Weed control pre-emergence (greenhouse pot test); details: pre-emergence, 2,5 kg a.i./ha, visual rating after 3-4 weeks
Source text: (§1) Die Schädigung der Unkrautpflanzen bzw. die Kulturpflanzenverträglichkeit wurde gemäß einem Schlüssel bonitiert, in dem die Wirksamkeit durch Wertzahlen von 0 - 5 ausgedrückt ist. Dabei bedeutet:
(§2) Samen bzw. Rhizomstücke von mono- und dikotylen Unkrautpflanzen wurden in Plasstiktöpfen (0 = 9 cm) in sandiger Lehmerde ausgelegt und mit Erde abgedeckt. Die in Form von benetzbaren Pulvern oder Emulsionskonzentraten formulierten erfindungsgemäßen Verbindungen wurden dann als wäßrige Suspensionen bzw. Emulsionen mit einer Wasseraufwandmenge von umgerechnet 600-800 1/ha in unterschiedlichen Dosierungen auf die Oberfläche der Abdeckerde appliziert. Nach der Behandlung wurden die Töpfe im Gewächshaus aufgestellt und unter guten Wachstumsbedingungen für die Unkrautpflanzen gehalten (Temperatur 23 plus/minus 1 Grad Celsius, relative Luftfeuchte 60-80 %).
(§3) Die optische Bonitur der Pflanzen- bzw. Auflaufschäden erfolgte nach dem Auflaufen der Versuchspflanzen nach einer Versuchszeit von 3-4 Wochen im Vergleich zu unbehandelten Kontrollen.

Chrysanthemum segetum [2] = assay: Weed control pre-emergence (greenhouse pot test); details: pre-emergence, 2,5 kg a.i./ha, visual rating after 3-4 weeks
Source text: as §1, §2, §3

Sinapis arvensis [3] = assay: Weed control pre-emergence (greenhouse pot test); details: pre-emergence, 2,5 kg a.i./ha, visual rating after 3-4 weeks
Source text: as §1, §2, §3

Echinochloa crus-galli [4] = assay: Weed control pre-emergence (greenhouse pot test); design: key: 0: = ohne Wirkung bzw. Schaden; 1: = 0 - 20 % Wirkung bzw. Schaden; = 20 - 40 % Wirkung bzw. Schaden; 3: = 40 - 60 % Wirkung bzw. Schaden; 4: = 60 - 80 % Wirkung bzw. Schaden; 5: = 80 - 100 % Wirkung bzw. Schaden; details: pre-emergence, 2,5 kg a.i./ha, visual rating after 3-4 weeks
Source text: as §1, §2, §3

Stellaria media [5] = assay: Weed control pre-emergence (greenhouse pot test); design: key: 0: = ohne Wirkung bzw. Schaden; 1: = 0 - 20 % Wirkung bzw. Schaden; = 20 - 40 % Wirkung bzw. Schaden; 3: = 40 - 60 % Wirkung bzw. Schaden; 4: = 60 - 80 % Wirkung bzw. Schaden; 5: = 80 - 100 % Wirkung bzw. Schaden; details: pre-emergence, 2,5 kg a.i./ha, visual rating after 3-4 weeks
Source text: as §1, §2, §3

Avena sativa [6] = assay: Weed control post-emergence (greenhouse pot test); details: post-emergence (three-leaf stage), 2,5 kg a.i./ha, visual rating after ca. 3-4 weeks
Source text: as §1
(§4) Samen bzw. Rhizomstüeke von mono- und dikotylen Unkräutern wurden in Plasstiktöpfen (φ= 9 cm) in sandigem Lehmboden ausgelegt, mit Erde abgedeckt und im Gewächshaus unter guten Wachstumsbedingungen angezogen. Drei Wochen nach der Aussaat wurden die Versuchspflanzen im Dreiblattstadium behandelt. Die als Spritzpulver bzw. als Eτulsionskonzentrate formulierten erfindungsgemäßen Verbindungen wurden in verschiedenen Dosierungen mit einer Wasseraufwandmenge von umgerechnet 600-800 l/ha auf die grünen Pflanzenteile gesprüht und nach ca. 3-4 Wochen Standzeit der Versuchspflanzen im Gewächshaus unter optimalen Wachstumsbedingungen (Temperatur 23°C +/- 1°C, relative Luftfeuchte 60-80 %) die Wirkung der Präparate optisch im Vergleich zu unbehandelten Kontrollen bonitiert.

Chrysanthemum segetum [7] = assay: Weed control post-emergence (greenhouse pot test); details: post-emergence (three-leaf stage), 2,5 kg a.i./ha, visual rating after ca. 3-4 weeks
Source text: as §1, §4

Sinapis arvensis [8] = assay: Weed control post-emergence (greenhouse pot test); details: post-emergence (three-leaf stage), 2,5 kg a.i./ha, visual rating after ca. 3-4 weeks
Source text: as §1, §4

Echinochloa crus-galli [9] = assay: Weed control post-emergence (greenhouse pot test); design: key: 0: = ohne Wirkung bzw. Schaden; 1: = 0 - 20 % Wirkung bzw. Schaden; = 20 - 40 % Wirkung bzw. Schaden; 3: = 40 - 60 % Wirkung bzw. Schaden; 4: = 60 - 80 % Wirkung bzw. Schaden; 5: = 80 - 100 % Wirkung bzw. Schaden; details: post-emergence (three-leaf stage), 2,5 kg a.i./ha, visual rating after ca. 3-4 weeks
Source text: as §1, §4

Stellaria media [10] = assay: Weed control post-emergence (greenhouse pot test); design: key: 0: = ohne Wirkung bzw. Schaden; 1: = 0 - 20 % Wirkung bzw. Schaden; = 20 - 40 % Wirkung bzw. Schaden; 3: = 40 - 60 % Wirkung bzw. Schaden; 4: = 60 - 80 % Wirkung bzw. Schaden; 5: = 80 - 100 % Wirkung bzw. Schaden; details: post-emergence (three-leaf stage), 2,5 kg a.i./ha, visual rating after ca. 3-4 weeks
Source text: as §1, §4

SMILES | Herbizide Wirkung im Vorauflauf AS (Avena sativa [1]) | Herbizide Wirkung im Vorauflauf CRS (Chrysanthemum segetum [2]) | Herbizide Wirkung im Vorauflauf SIA (Sinapis arvensis [3]) | Herbizide Wirkung im Vorauflauf ECG (Echinochloa crus-galli [4]) | Herbizide Wirkung im Vorauflauf STM (Stellaria media [5]) | Herbizide Wirkung im Nachauflauf AS (Avena sativa [6]) | Herbizide Wirkung im Nachauflauf CRS (Chrysanthemum segetum [7]) | Herbizide Wirkung im Nachauflauf SIA (Sinapis arvensis [8]) | Herbizide Wirkung im Nachauflauf ECG (Echinochloa crus-galli [9]) | Herbizide Wirkung im Nachauflauf STM (Stellaria media [10])
CCOC(=O)C(C)OC(OC(=O)c1cc(Oc2ccc(C(F)(F)F)cc2Cl)ccc1[N+](=O)[O-])C(Cl)(Cl)Cl (stereo not drawn) [compound 23] | 5 (= 80 - 100 % Wirkung bzw. Schaden) | 5 (= 80 - 100 % Wirkung bzw. Schaden) | 5 (= 80 - 100 % Wirkung bzw. Schaden) | 5 (= 80 - 100 % Wirkung bzw. Schaden) | 5 (= 80 - 100 % Wirkung bzw. Schaden) | 1 (= 0 - 20 % Wirkung bzw. Schaden) | 5 (= 80 - 100 % Wirkung bzw. Schaden) | 5 (= 80 - 100 % Wirkung bzw. Schaden) | 2 (= 20 - 40 % Wirkung bzw. Schaden) | 5 (= 80 - 100 % Wirkung bzw. Schaden)
O=C(OC(OCC(F)(F)C(F)F)C(Cl)(Cl)Cl)c1cc(Oc2ccc(C(F)(F)F)cc2Cl)ccc1[N+](=O)[O-] (stereo not drawn) [compound 7] | 3 (= 40 - 60 % Wirkung bzw. Schaden) | 5 (= 80 - 100 % Wirkung bzw. Schaden) | 3 (= 40 - 60 % Wirkung bzw. Schaden) | 5 (= 80 - 100 % Wirkung bzw. Schaden) | 2 (= 20 - 40 % Wirkung bzw. Schaden) | 2 (= 20 - 40 % Wirkung bzw. Schaden) | 5 (= 80 - 100 % Wirkung bzw. Schaden) | 5 (= 80 - 100 % Wirkung bzw. Schaden) | 3 (= 40 - 60 % Wirkung bzw. Schaden) | 5 (= 80 - 100 % Wirkung bzw. Schaden)
Cc1ncsc1COC(OC(=O)c1cc(Oc2ccc(C(F)(F)F)cc2Cl)ccc1[N+](=O)[O-])C(Cl)(Cl)Cl (stereo not drawn) [compound 37] | 2 (= 20 - 40 % Wirkung bzw. Schaden) | 3 (= 40 - 60 % Wirkung bzw. Schaden) | 4 (= 60 - 80 % Wirkung bzw. Schaden) | 2 (= 20 - 40 % Wirkung bzw. Schaden) | 1 (= 0 - 20 % Wirkung bzw. Schaden) | 2 (= 20 - 40 % Wirkung bzw. Schaden) | 4 (= 60 - 80 % Wirkung bzw. Schaden) | 5 (= 80 - 100 % Wirkung bzw. Schaden) | 2 (= 20 - 40 % Wirkung bzw. Schaden) | 0
N#CCCSCCOC(OC(=O)c1cc(Oc2ccc(C(F)(F)F)cc2Cl)ccc1[N+](=O)[O-])C(Cl)(Cl)Cl (stereo not drawn) [compound 9] | 4 (= 60 - 80 % Wirkung bzw. Schaden) | 5 (= 80 - 100 % Wirkung bzw. Schaden) | 4 (= 60 - 80 % Wirkung bzw. Schaden) | 4 (= 60 - 80 % Wirkung bzw. Schaden) | 3 (= 40 - 60 % Wirkung bzw. Schaden) | 1 (= 0 - 20 % Wirkung bzw. Schaden) | 4 (= 60 - 80 % Wirkung bzw. Schaden) | 5 (= 80 - 100 % Wirkung bzw. Schaden) | 2 (= 20 - 40 % Wirkung bzw. Schaden) | 0
CCOC(=O)COC(OC(=O)c1cc(Oc2ccc(C(F)(F)F)cc2Cl)ccc1[N+](=O)[O-])C(Cl)(Cl)Cl (stereo not drawn) [compound 22] | 4 (= 60 - 80 % Wirkung bzw. Schaden) | 5 (= 80 - 100 % Wirkung bzw. Schaden) | 5 (= 80 - 100 % Wirkung bzw. Schaden) | 5 (= 80 - 100 % Wirkung bzw. Schaden) | 2 (= 20 - 40 % Wirkung bzw. Schaden) | 5 (= 80 - 100 % Wirkung bzw. Schaden) | 5 (= 80 - 100 % Wirkung bzw. Schaden) | 5 (= 80 - 100 % Wirkung bzw. Schaden) | 5 (= 80 - 100 % Wirkung bzw. Schaden) | 3 (= 40 - 60 % Wirkung bzw. Schaden)
CC1(C)OCC(COC(OC(=O)c2cc(Oc3ccc(C(F)(F)F)cc3Cl)ccc2[N+](=O)[O-])C(Cl)(Cl)Cl)O1 (stereo not drawn) [compound 6, 5-(2-Chlor-4-trifluormethylphenoxy)-2-nitrobenzoesäure-1-(2,2-dimethyl-1,3-dioxolan-4-yl)-methoxy-2,2,2-trichlorethylester] | 1 (= 0 - 20 % Wirkung bzw. Schaden) | 3 (= 40 - 60 % Wirkung bzw. Schaden) | 2 (= 20 - 40 % Wirkung bzw. Schaden) | 0 | 0 | 1 (= 0 - 20 % Wirkung bzw. Schaden) | 4 (= 60 - 80 % Wirkung bzw. Schaden) | 4 (= 60 - 80 % Wirkung bzw. Schaden) | 0 | 3 (= 40 - 60 % Wirkung bzw. Schaden)
CP(C)(=O)COC(OC(=O)c1cc(Oc2ccc(C(F)(F)F)cc2Cl)ccc1[N+](=O)[O-])C(Cl)(Cl)Cl (stereo not drawn) [compound 46] | 4 (= 60 - 80 % Wirkung bzw. Schaden) | 5 (= 80 - 100 % Wirkung bzw. Schaden) | 5 (= 80 - 100 % Wirkung bzw. Schaden) | 5 (= 80 - 100 % Wirkung bzw. Schaden) | 1 (= 0 - 20 % Wirkung bzw. Schaden) | 2 (= 20 - 40 % Wirkung bzw. Schaden) | 5 (= 80 - 100 % Wirkung bzw. Schaden) | 5 (= 80 - 100 % Wirkung bzw. Schaden) | 2 (= 20 - 40 % Wirkung bzw. Schaden) | 2 (= 20 - 40 % Wirkung bzw. Schaden)
CCOC(=O)C(C)(C)OC(OC(=O)c1cc(Oc2ccc(C(F)(F)F)cc2Cl)ccc1[N+](=O)[O-])C(Cl)(Cl)Cl (stereo not drawn) [compound 30] | 5 (= 80 - 100 % Wirkung bzw. Schaden) | 5 (= 80 - 100 % Wirkung bzw. Schaden) | 5 (= 80 - 100 % Wirkung bzw. Schaden) | 5 (= 80 - 100 % Wirkung bzw. Schaden) | 2 (= 20 - 40 % Wirkung bzw. Schaden) | 5 (= 80 - 100 % Wirkung bzw. Schaden) | 5 (= 80 - 100 % Wirkung bzw. Schaden) | 5 (= 80 - 100 % Wirkung bzw. Schaden) | 4 (= 60 - 80 % Wirkung bzw. Schaden) | 5 (= 80 - 100 % Wirkung bzw. Schaden)
CCOC(=O)C(C)OC(OC(=O)c1cc(Oc2c(Cl)cc(C(F)(F)F)cc2Cl)ccc1[N+](=O)[O-])C(Cl)(Cl)Cl (stereo not drawn) [compound 34] | 2 (= 20 - 40 % Wirkung bzw. Schaden) | 5 (= 80 - 100 % Wirkung bzw. Schaden) | 5 (= 80 - 100 % Wirkung bzw. Schaden) | 1 (= 0 - 20 % Wirkung bzw. Schaden) | 5 (= 80 - 100 % Wirkung bzw. Schaden) | 5 (= 80 - 100 % Wirkung bzw. Schaden) | 5 (= 80 - 100 % Wirkung bzw. Schaden) | 5 (= 80 - 100 % Wirkung bzw. Schaden) | 4 (= 60 - 80 % Wirkung bzw. Schaden) | 5 (= 80 - 100 % Wirkung bzw. Schaden)
